Test results: patent publication US8637075B2, “Colostrum composition” (Pharma GP ApS, priority 2008, dated 2014)

Tests used:
Assay type in all cases: cell-based
[1] = system: neopterin formation in PHA-stimulated PBMC; experiment: Example 16: neopterin formation in PHA-stimulated human PBMC; details: PHA 10 μg/ml, 48 h
Experimental: (§1) PBMC were isolated from whole blood obtained from healthy donors, of whom informed consent was obtained that their donated blood unit was used for scientific purposes if not otherwise used. Separation of blood cells was performed using density centrifugation (Lymphoprep, Nycomed Pharma AS, Oslo, Norway). After isolation, PBMC were washed three times in phosphate buffered saline containing […] [0.5 mmol/L]. Cells were maintained in RPMI 1640 supplemented with 10% heat-inactivated fetal calf serum (Biochrom, Berlin, Germany), 1% of 200 mmol/L glutamine (Serve, Heidelberg, Germany) and 0.1% of gentamicin (50 mg/ml, Bio-Whittaker, Walkersville, Md.) in a humidified atmosphere containing 5% CO2 for 48 h. This procedure was observed earlier to reveal best reproducible results when applied for testing of anti-inflammatory effects of compounds or drugs (Widner et al., 1997). Average tryptophan content in the supplemented RPMI 1640 medium was 31.5 μmol/L. For each of the three experiments run in duplicates, PBMC were freshly prepared. Isolated PBMC were plated at a density of 1.5×10^6 cells/ml in supplemented RPMI 1640, preincubated for 30 minutes with or without BC preparations and stimulated or not with 10 μg/ml PHA for 48 h.
(§2) After incubation of cells for 48 h, supernatants were harvested by centrifugation and tryptophan and kynurenine concentrations were measured by high performance liquid chromatography (HPLC) using 3-nitro-L-tyrosine as internal standard (Widner and others 1997). To estimate IDO activity, the kynurenine to tryptophan ratio (kyn/trp) was calculated and expressed as μmol kynurenine/mmol tryptophan (Widner et al., 1997). Neopterin concentrations were determined by ELISA (BRAHMS, Hennigsdorf/Berlin, Germany) according to the manufacturer's instructions with a detection limit of 2 nmol/L.
(§3) For statistical analysis, the Statistical Package for the Social Sciences (version 14 SPSS, Chicago, Ill., USA) was used. […] P-values below 0.05 were considered to indicate significant differences.

[2] = system: indoleamine 2,3-dioxygenase (IDO) activity in PHA-stimulated PBMC; experiment: Example 16: IDO activity (kyn/trp) in PHA-stimulated human PBMC; details: PHA 10 μg/ml, 48 h
Experimental: as §1, §2, §3

[3] = system: indoleamine 2,3-dioxygenase (IDO) activity in unstimulated PBMC; experiment: Example 16: IDO activity (kyn/trp) in unstimulated human PBMC; details: 20 mg/ml, 48 h
Experimental: (§4) PBMC were isolated from whole blood obtained from healthy donors, of whom informed consent was obtained that their donated blood unit was used for scientific purposes if not otherwise used. Separation of blood cells was performed using density centrifugation (Lymphoprep, Nycomed Pharma AS, Oslo, Norway). After isolation, PBMC were washed three times in phosphate buffered saline containing 0.2% EDTA [0.5 mmol/L]. Cells were maintained in RPMI 1640 supplemented with 10% heat-inactivated fetal calf serum (Biochrom, Berlin, Germany), 1% of 200 mmol/L glutamine (Serve, Heidelberg, Germany) and 0.1% of gentamicin (50 mg/ml, Bio-Whittaker, Walkersville, Md.) in a humidified atmosphere containing 5% CO2 for 48 h. […]
as §2, with “nmol/L. […]” for “nmol/L.”

[4] = system: neopterin formation in unstimulated PBMC; experiment: Example 16: neopterin formation in unstimulated human PBMC; details: 48 h
Experimental: as §4
as §2, with “nmol/L. […]” for “nmol/L.”

lactoferrin
neopterin formation as % of PHA control ([1]; 2 mg/ml): 61.3±11.7%
neopterin formation as % of PHA control ([1]; 20 mg/ml): 31.1±3.9%
IDO activity (kyn/trp) as % of PHA control ([2]; 0.2 mg/ml): 34.0±9.7%
IDO activity (kyn/trp) as % of unstimulated control [3]: 54.7±5.0%
neopterin formation as % of unstimulated control ([4]; 0.2 mg/ml): 125±2.8%
neopterin formation as % of unstimulated control ([4]; 2 mg/ml): 132±4.1%

phytohemagglutinin [phytohemagglutinin (PHA)]
increase of neopterin concentration versus unstimulated PBMC ([1]; PBMC): about 3.6 fold
neopterin concentration in the supernatant ([1]; PBMC): 13.2 ± 3.6 nmol/L
Kyn/trp ([2]; PBMC): 1312±459 μmol/mmol
increase of IDO activity versus unstimulated PBMC ([2]; PBMC): approximately 47 fold
kynurenine concentration in the supernatant ([2]; PBMC): 9.8 ± 1.3 µmol/L
tryptophan content in the supernatant ([2]; PBMC): 8.2 ± 2.0 µmol/L
